In ChEMBL document CHEMBL4706501, “Drug repurposing: Discovery of troxipide analogs as potent antitumor agents” (Eur J Med Chem, 2020) one finds IC50 data, which are given here for two compounds.

Type in all cases: functional, cell-based
For one experiment, the system named is PC-9. In words: Antiproliferative activity against human PC9 cells assessed as reduction in cell viability after 24 to 72 hrs by MTT assay. On the technique in general: Formazan colour is commonly taken as a measure of viable cells.
The test system of a further experiment is PC-3. In words: Antiproliferative activity against human PC3 cells assessed as reduction in cell viability after 24 to 72 hrs by MTT assay.
A further experiment concerns MGC-803. The experiment is described as follows: Antiproliferative activity against human MGC-803 cells assessed as reduction in cell viability after 24 to 72 hrs by MTT assay.
The subject of a further experiment is MCF7. The experiment is described as follows: Antiproliferative activity against human MCF7 cells assessed as reduction in cell viability after 24 to 72 hrs by MTT assay.

Turning to `O=c1[nH]cc(F)c(=O)[nH]1` [FLUOROURACIL], the IC50 in the experiment with PC-9 is 4.12 µM; in the experiment on PC-3 it was 5.32 µM.

On to `COc1cc(C(=O)NC2CCCNC2)cc(OC)c1OC` (stereo unspecified) [TROXIPIDE], for which the IC50 with PC-9, in the experiment on MGC-803, in the experiment on PC-3 and in the experiment on MCF7 was greater than 100 µM in each case.

As usually defined, the IC50 is the concentration that gives 50% inhibition.
